Assay results reported in patent publication US7741287B2, “Peptides for the treatment of herpes virus infections” (IPF PharmaCeuticals GmbH, priority 2004, dated 2010).
Where no end group is shown, it is not given here.

Test system: HSV-2
Format: cell-based, herpes simplex virus type 2 (HSV-2)
Details: ELVIS cell infection assay; virus not given

## VCVLAHHFGKEF [VCVLAHHFGKEF (SEQ ID NO:2)]
  antiviral activity in cellular infection assay: high activity
